Laboratory results published in ChEMBL document CHEMBL5244206, “Recent encounters with atropisomerism in drug discovery” (Bioorg Med Chem Lett, 2018).

Target: ALK tyrosine kinase receptor (Homo sapiens, UniProt Q9UM73, L1196M)
Test: Binding affinity to human recombinant ALK L1196M mutant (1093 to 1411 residues) assessed as inhibition constant using 5'FAM-KKSRGDYMTMQIG-CONH2 peptide as substrate in presence of ATP by micro-fluidic mobility shift assay

Sequence of ALK tyrosine kinase receptor (Q9UM73 19-1620 L1196M limits assumed): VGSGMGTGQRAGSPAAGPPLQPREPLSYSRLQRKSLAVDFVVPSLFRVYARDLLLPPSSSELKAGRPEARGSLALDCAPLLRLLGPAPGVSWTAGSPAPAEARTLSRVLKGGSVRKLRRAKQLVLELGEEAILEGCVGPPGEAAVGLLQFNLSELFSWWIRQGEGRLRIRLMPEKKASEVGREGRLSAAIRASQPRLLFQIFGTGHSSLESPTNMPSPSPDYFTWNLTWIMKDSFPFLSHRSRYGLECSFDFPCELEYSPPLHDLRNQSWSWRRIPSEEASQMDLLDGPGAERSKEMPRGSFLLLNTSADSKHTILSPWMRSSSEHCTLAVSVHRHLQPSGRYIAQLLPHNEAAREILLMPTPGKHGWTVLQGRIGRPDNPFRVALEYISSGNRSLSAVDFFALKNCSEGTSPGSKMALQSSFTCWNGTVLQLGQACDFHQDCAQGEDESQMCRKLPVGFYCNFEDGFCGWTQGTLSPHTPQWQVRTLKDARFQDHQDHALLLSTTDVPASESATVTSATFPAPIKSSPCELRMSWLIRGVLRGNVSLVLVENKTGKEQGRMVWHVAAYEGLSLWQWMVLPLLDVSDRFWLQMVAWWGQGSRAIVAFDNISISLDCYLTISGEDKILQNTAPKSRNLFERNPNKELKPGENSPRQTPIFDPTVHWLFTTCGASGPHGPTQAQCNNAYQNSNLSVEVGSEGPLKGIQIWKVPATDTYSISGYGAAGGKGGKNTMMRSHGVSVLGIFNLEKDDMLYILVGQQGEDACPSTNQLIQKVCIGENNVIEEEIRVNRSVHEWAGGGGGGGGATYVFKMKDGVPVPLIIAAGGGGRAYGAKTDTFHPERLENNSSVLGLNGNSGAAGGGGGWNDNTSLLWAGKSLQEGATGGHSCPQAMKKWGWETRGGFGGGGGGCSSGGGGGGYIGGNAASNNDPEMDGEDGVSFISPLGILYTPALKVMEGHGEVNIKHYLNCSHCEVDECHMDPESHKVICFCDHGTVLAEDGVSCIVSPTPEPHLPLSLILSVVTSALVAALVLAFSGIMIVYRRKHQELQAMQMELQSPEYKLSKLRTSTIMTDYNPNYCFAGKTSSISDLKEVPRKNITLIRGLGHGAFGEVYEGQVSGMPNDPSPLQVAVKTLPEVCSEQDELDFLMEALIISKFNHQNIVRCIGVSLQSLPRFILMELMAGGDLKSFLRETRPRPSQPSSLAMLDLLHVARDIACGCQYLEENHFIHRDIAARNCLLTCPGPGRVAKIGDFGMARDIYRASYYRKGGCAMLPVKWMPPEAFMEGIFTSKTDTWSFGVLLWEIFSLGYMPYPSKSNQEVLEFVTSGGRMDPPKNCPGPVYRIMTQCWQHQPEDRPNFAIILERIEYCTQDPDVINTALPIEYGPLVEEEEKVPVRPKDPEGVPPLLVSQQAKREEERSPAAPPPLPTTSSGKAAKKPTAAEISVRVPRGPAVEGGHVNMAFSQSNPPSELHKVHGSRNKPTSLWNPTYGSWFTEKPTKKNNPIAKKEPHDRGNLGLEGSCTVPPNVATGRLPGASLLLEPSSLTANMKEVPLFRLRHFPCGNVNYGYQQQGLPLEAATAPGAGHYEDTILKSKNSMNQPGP

Ki: 273 nM
Compound: CN1Cc2nn(C)c(C#N)c2-c2cnc(N)c(c2)OCc2cc(F)ccc2C1=O
